Data taken from paper PMC4006873 (Biochemistry, 2013).
Peptide text beside a SMILES is read from it. * marks the point of attachment. X1 = C[C@@H]1C[C@H]2[C@@H]3CCC4=CC(=O)C=C[C@]4(C)[C@@]3(F)[C@@H](O)C[C@]2(C)[C@@]1(O)C(=O)CSCCC(=O)*

Legend:
Gal4-GR★-VP16 = molecular target: T1, Gal4-GR★-VP16 (Homo sapiens, UniProt P04150, C638G); test: GIGI in cell lysates, stably transfected U2OS; conditions: U2OS(GIGI) cells; for Z′-factor of GIGI assay: 1 μM vs untreated, 24 h, n = 150
T1 sequence (P04150 524-758 C638G): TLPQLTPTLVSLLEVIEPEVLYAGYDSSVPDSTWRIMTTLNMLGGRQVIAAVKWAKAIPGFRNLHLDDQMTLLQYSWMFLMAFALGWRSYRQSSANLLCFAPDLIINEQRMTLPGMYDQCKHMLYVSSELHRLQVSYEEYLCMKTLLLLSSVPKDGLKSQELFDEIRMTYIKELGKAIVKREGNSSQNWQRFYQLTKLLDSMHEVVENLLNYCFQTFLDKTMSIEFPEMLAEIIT

GR★-GFP [1] = molecular target: T2, GR★-GFP (Homo sapiens, UniProt P04150, C638G); test: High-content imaging of GIGT in stably transfected Saos-2; format: cell-based; conditions: Saos-2(GIGT) cells, 30 min; for Z′-factor of GIGT assay: 1 μM vs untreated
T2 sequence (P04150 1-777 C638G): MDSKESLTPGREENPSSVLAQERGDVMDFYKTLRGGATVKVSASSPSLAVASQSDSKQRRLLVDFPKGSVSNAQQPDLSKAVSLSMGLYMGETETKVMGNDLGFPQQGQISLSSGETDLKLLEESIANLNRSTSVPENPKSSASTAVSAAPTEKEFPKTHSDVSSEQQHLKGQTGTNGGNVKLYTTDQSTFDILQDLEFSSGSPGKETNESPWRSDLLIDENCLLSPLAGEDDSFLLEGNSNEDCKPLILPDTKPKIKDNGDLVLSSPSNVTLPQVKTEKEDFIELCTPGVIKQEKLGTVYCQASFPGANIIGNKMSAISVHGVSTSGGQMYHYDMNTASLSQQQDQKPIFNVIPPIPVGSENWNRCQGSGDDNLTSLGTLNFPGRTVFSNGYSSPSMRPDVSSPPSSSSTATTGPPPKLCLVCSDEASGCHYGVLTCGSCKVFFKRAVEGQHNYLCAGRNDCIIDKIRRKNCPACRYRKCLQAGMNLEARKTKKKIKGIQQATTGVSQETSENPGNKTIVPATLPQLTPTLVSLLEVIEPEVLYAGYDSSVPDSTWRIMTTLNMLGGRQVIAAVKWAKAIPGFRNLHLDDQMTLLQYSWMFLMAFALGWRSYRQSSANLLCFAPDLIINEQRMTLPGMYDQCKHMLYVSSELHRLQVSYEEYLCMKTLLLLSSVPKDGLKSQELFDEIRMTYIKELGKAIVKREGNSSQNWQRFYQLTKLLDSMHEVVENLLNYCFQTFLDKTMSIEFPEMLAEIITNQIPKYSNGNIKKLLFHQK

GR★-GFP [2] = molecular target: T2, GR★-GFP; test: GIGT nuclear translocation, transiently transfected cells expressing GR★-GFP; format: cell-based; conditions: HeLa cells expressing GR★-GFP, 500 nM, 30 min
rat C656G GR = conditions: read-out: equilibrium dissociation constant (Kd), in vitro; cited from earlier work

Which “eGFP expression after treatment and cell lysis” value (Gal4-GR★-VP16; 1 μM) does the source give for `CC[C@H](C)[C@H](NC(=O)[C@H](CC(C)C)NC(=O)[C@H](CC(=O)O)NC(=O)[C@H](CCCNC(=N)N)NC(=O)[C@@H](NC(=O)[C@@H]1CCCN1C(=O)[C@H](C)NC(=O)[C@H](CC(=O)O)NC(=O)[C@H](CC(=O)O)NC(=O)CNC(=O)[C@@H]1CCCN1C(=O)[C@H](Cc1ccc(O)cc1)NC(=O)[C@@H](NC(=O)[C@@H]1CCCN1C(=O)[C@H](CCC(N)=O)NC(=O)[C@H](CO)NC(=O)[C@@H]1CCCN1C(=O)CN)[C@@H](C)O)C(C)C)C(=O)N[C@@H](CCCNC(=N)N)C(=O)N[C@@H](Cc1ccccc1)C(=O)N[C@@H](Cc1ccc(O)cc1)C(=O)N[C@@H](CCCNC(=N)N)C(=O)N[C@@H](CC(=O)O)C(=O)N[C@@H](CC(C)C)C(=O)N[C@@H](CCCNC(=N)N)C(=O)N[C@@H](CCCNC(=N)N)C(=O)N[C@@H](Cc1ccc(O)cc1)C(=O)N[C@@H](CC(C)C)C(=O)N[C@@H](CC(N)=O)C(=O)N[C@H](C(=O)N[C@H](C(=O)N[C@H](C(=O)N[C@@H](CCCNC(=N)N)C(=O)N[C@@H](Cc1c[nH]cn1)C(=O)N[C@@H](CCCNC(=N)N)C(=O)N[C@@H](Cc1ccc(O)cc1)C(=O)N[C@@H](CCCCNC(=O)CCSCC(=O)[C@@]1(O)[C@H](C)C[C@H]2[C@@H]3CCC4=CC(=O)C=C[C@]4(C)[C@@]3(F)[C@@H](O)C[C@@]21C)C(N)=O)[C@@H](C)O)C(C)C)C(C)C` [5.3^Dex] (H-GPSQPTYPGDDAPVRDLIRFYRDLRRYLNVVTRHRYK(X1)-NH2; N-terminus and C-terminus assumed) here?
The value was “significant eGFP expression”.

And the “Z′-factor of GIGI assay” value (Gal4-GR★-VP16)?
Its value is 0.56.

And the “Z′-factor of GIGT assay” value (GR★-GFP [1])?
The value was 0.54.

And the “translocation ratio (TR)” value (GR★-GFP [1]; 1 μM)?
Its value is 4.01 ± 0.30.

What about the “translocation ratio (TR)” value (GR★-GFP [2]) of the same compound?
The value was 2.79 ± 0.39.

With `C[C@@H]1C[C@H]2[C@@H]3CCC4=CC(=O)C=C[C@]4(C)[C@@]3(F)[C@@H](O)C[C@]2(C)[C@@]1(O)C(=O)CO` [Dex, dexamethasone] as the compound, how does the Kd (rat C656G GR) read?
The Kd was 0.55 nM.

Which results are given for `CC(C)C[C@H](NC(=O)[C@H](Cc1c[nH]cn1)NC(=O)[C@H](CCCNC(=N)N)NC(=O)[C@H](CO)NC(=O)[C@H](CC(C)C)NC(=O)[C@@H](NC(=O)[C@H](Cc1ccccc1)NC(=O)[C@H](C)NC(=O)[C@H](CCCCN)NC(=O)CNC(=O)[C@H](CS)NC(=O)[C@@H](NC(=O)[C@H](CC(N)=O)NC(=O)[C@H](CS)NC(=O)[C@H](CO)NC(=O)[C@H](Cc1ccc(O)cc1)NC(=O)[C@@H](N)Cc1c[nH]c2ccccc12)C(C)C)C(C)C)C(=O)N[C@@H](CC(N)=O)C(=O)N[C@@H](CCCNC(=N)N)C(=O)N[C@@H](Cc1c[nH]cn1)C(=O)N[C@@H](CC(C)C)C(=O)N[C@@H](CCCNC(=N)N)C(=O)N[C@H](C(=O)N[C@@H](Cc1c[nH]cn1)C(=O)N[C@@H](CCCNC(=N)N)C(=O)N[C@@H](CCCNC(=N)N)C(=O)N[C@@H](C)C(=O)N[C@H](C(=O)N[C@@H](CCCCNC(=O)CCSCC(=O)[C@@]1(O)[C@H](C)C[C@H]2[C@@H]3CCC4=CC(=O)C=C[C@]4(C)[C@@]3(F)[C@@H](O)C[C@@]21C)C(N)=O)[C@@H](C)O)C(C)C` [ZF5.3^Dex] (H-WYSCNVCGKAFVLSRHLNRHLRVHRRATK(X1)-NH2; N-terminus and C-terminus assumed)?
Z′-factor of GIGI assay (Gal4-GR★-VP16): 0.42; Z′-factor of GIGT assay (GR★-GFP [1]): 0.56
